In ChEMBL document CHEMBL1201862, “PubChem BioAssay data set” (2004):
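These data come from cells grown in 96-well plates and exposed to compound for 48 hours at five concentrations. GI50 marks 50% less growth.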 Activity calls are given as the source filed them. Cut-off read from the data, not from the text of the source: active = GI50 up to about 1.1 µM and inactive = higher.

Key:
Test in all cases: inhibition of tumour cell growth, NCI panel, 48 h
[1] = tested on: K562
[2] = tested on: SNB-19
[3] = tested on: CCRF-CEM
[4] = tested on: RPMI-8226
[5] = tested on: KM12
[6] = tested on: TK-10
[7] = tested on: SNB-78
[8] = tested on: OVCAR-4
[9] = tested on: Malme-3M
[10] = tested on: EKVX
[11] = tested on: HCT-15
[12] = tested on: SK-MEL-28
[13] = tested on: LOX IMVI
[14] = tested on: UACC-62
[15] = tested on: COLO 205
[16] = tested on: NCI-H522
[17] = tested on: MOLT-4
[18] = tested on: PC-3
[19] = tested on: MDA-N
[20] = tested on: MDA-MB-231

Question: With `CC(=O)/C=C1\CC(=O)Nc2ccccc2N1` as the compound, how does the GI50 [1] read?
Answer: > 100 µM (inactive)

Question: And the GI50 [2]?
Answer: > 100 µM (inactive)

Question: And the GI50 [3]?
Answer: 2.79 µM (inactive)

Question: What about the GI50 [4] of the same compound?
Answer: > 100 µM (inactive)

Question: And the GI50 [5]?
Answer: > 100 µM (inactive)

Question: And the GI50 [6]?
Answer: > 100 µM (inactive)

Question: What about the GI50 [7] of the same compound?
Answer: > 100 µM (inactive)

Question: What about the GI50 [8] of the same compound?
Answer: > 100 µM (inactive)

Question: And the GI50 [9]?
Answer: > 100 µM (inactive)

Question: What about the GI50 [10] of the same compound?
Answer: > 100 µM (inactive)

Question: What about the GI50 [11] of the same compound?
Answer: > 100 µM

Question: What about the GI50 [12] of the same compound?
Answer: > 100 µM (inactive)

Question: What about the GI50 [13] of the same compound?
Answer: > 100 µM (inactive)

Question: What about the GI50 [14] of the same compound?
Answer: > 100 µM (inactive)

Question: Which GI50 [2] does the source give for `CC1=C(C(=O)CC(=O)C(=O)Nc2ccc(C)c(C)c2)Sc2ccccc2N1` here?
Answer: > 100 µM (inactive)

Question: And the GI50 [4]?
Answer: > 100 µM (inactive)

Question: And the GI50 [5]?
Answer: > 100 µM (inactive)

Question: What about the GI50 [6] of the same compound?
Answer: > 100 µM (inactive)

Question: And the GI50 [7]?
Answer: > 100 µM (inactive)

Question: What about the GI50 [8] of the same compound?
Answer: > 100 µM (inactive)

Question: And the GI50 [9]?
Answer: > 100 µM (inactive)

Question: And the GI50 [10]?
Answer: > 100 µM (inactive)

Question: What about the GI50 [15] of the same compound?
Answer: > 100 µM (inactive)

Question: And the GI50 [11]?
Answer: > 100 µM

Question: And the GI50 [16]?
Answer: > 100 µM (inactive)

Question: What about the GI50 [12] of the same compound?
Answer: > 100 µM (inactive)

Question: What about the GI50 [13] of the same compound?
Answer: > 100 µM (inactive)

Question: And the GI50 [14]?
Answer: > 100 µM (inactive)

Question: With `COc1ccc2cc3[n+](cc2c1OC)CCc1cc(O)c(O)cc1-3` as the compound, how does the GI50 [1] read?
Answer: > 100 µM (inactive)

Question: What about the GI50 [2] of the same compound?
Answer: > 100 µM (inactive)

Question: What about the GI50 [3] of the same compound?
Answer: > 100 µM (inactive)

Question: And the GI50 [4]?
Answer: > 100 µM (inactive)

Question: What about the GI50 [5] of the same compound?
Answer: > 100 µM (inactive)

Question: And the GI50 [6]?
Answer: > 100 µM (inactive)

Question: And the GI50 [7]?
Answer: > 100 µM (inactive)

Question: What about the GI50 [8] of the same compound?
Answer: > 100 µM (inactive)

Question: What about the GI50 [9] of the same compound?
Answer: > 100 µM (inactive)

Question: And the GI50 [10]?
Answer: > 100 µM (inactive)

Question: And the GI50 [15]?
Answer: > 100 µM (inactive)

Question: And the GI50 [11]?
Answer: > 100 µM

Question: And the GI50 [16]?
Answer: > 100 µM (inactive)

Question: What about the GI50 [13] of the same compound?
Answer: > 100 µM (inactive)

Question: What about the GI50 [14] of the same compound?
Answer: > 100 µM (inactive)

Question: What about the GI50 [17] of the same compound?
Answer: > 100 µM (inactive)

Question: `Cc1ccc2c(c1)CNc1ccc(C)cc1CN2` was tested. Which GI50 [1] did it give?
Answer: > 100 µM (inactive)

Question: What about the GI50 [2] of the same compound?
Answer: < 0.01 µM (active)

Question: And the GI50 [3]?
Answer: > 100 µM (inactive)

Question: What about the GI50 [4] of the same compound?
Answer: > 100 µM (inactive)

Question: What about the GI50 [5] of the same compound?
Answer: > 100 µM (inactive)

Question: What about the GI50 [7] of the same compound?
Answer: > 100 µM (inactive)

Question: And the GI50 [8]?
Answer: > 100 µM (inactive)

Question: What about the GI50 [10] of the same compound?
Answer: > 100 µM (inactive)

Question: And the GI50 [15]?
Answer: > 100 µM (inactive)

Question: And the GI50 [11]?
Answer: > 100 µM

Question: And the GI50 [16]?
Answer: > 100 µM (inactive)

Question: What about the GI50 [13] of the same compound?
Answer: > 100 µM (inactive)

Question: And the GI50 [14]?
Answer: > 100 µM (inactive)

Question: And the GI50 [17]?
Answer: > 100 µM (inactive)

Question: Which GI50 [1] does the source give for `CCOc1ccc(NC(=O)CC#N)cc1` here?
Answer: > 100 µM (inactive)

Question: What about the GI50 [2] of the same compound?
Answer: > 100 µM (inactive)

Question: What about the GI50 [3] of the same compound?
Answer: > 100 µM (inactive)

Question: And the GI50 [5]?
Answer: > 100 µM (inactive)

Question: And the GI50 [6]?
Answer: > 100 µM (inactive)

Question: And the GI50 [7]?
Answer: > 100 µM (inactive)

Question: And the GI50 [8]?
Answer: > 100 µM (inactive)

Question: What about the GI50 [9] of the same compound?
Answer: > 100 µM (inactive)

Question: What about the GI50 [10] of the same compound?
Answer: > 100 µM (inactive)

Question: And the GI50 [15]?
Answer: > 100 µM (inactive)

Question: And the GI50 [16]?
Answer: > 100 µM (inactive)

Question: What about the GI50 [12] of the same compound?
Answer: > 100 µM (inactive)

Question: What about the GI50 [13] of the same compound?
Answer: > 100 µM (inactive)

Question: What about the GI50 [14] of the same compound?
Answer: > 100 µM (inactive)

Question: And the GI50 [17]?
Answer: > 100 µM (inactive)

Question: Which results are given for `C=CCc1cc(-c2cc(CC=C)c(O)c(CNCCCl)c2)cc(CNCCCl)c1O`?
Answer: GI50 [1]: 17.8 µM (inactive); GI50 [2]: 30 µM (inactive); GI50 [3]: 18.3 µM (inactive); GI50 [4]: 21.4 µM (inactive); GI50 [5]: 17.3 µM (inactive); GI50 [6]: 19.6 µM (inactive); GI50 [7]: 39.3 µM (inactive); GI50 [8]: 22.9 µM (inactive); GI50 [9]: 22.2 µM (inactive); GI50 [15]: 17.9 µM (inactive); GI50 [11]: 16.4 µM; GI50 [16]: 16.9 µM (inactive); GI50 [12]: 18.6 µM (inactive); GI50 [13]: 15.3 µM (inactive); GI50 [14]: 14.6 µM (inactive); GI50 [17]: 16.9 µM (inactive)

Question: Which GI50 [1] does the source give for `CN1C(=O)C(=CN)C(=O)N(C)C1=O` here?
Answer: > 100 µM (inactive)

Question: What about the GI50 [2] of the same compound?
Answer: > 100 µM (inactive)

Question: What about the GI50 [3] of the same compound?
Answer: > 100 µM (inactive)

Question: What about the GI50 [4] of the same compound?
Answer: > 100 µM (inactive)

Question: What about the GI50 [5] of the same compound?
Answer: > 100 µM (inactive)

Question: And the GI50 [6]?
Answer: > 100 µM (inactive)

Question: And the GI50 [7]?
Answer: > 100 µM (inactive)

Question: What about the GI50 [8] of the same compound?
Answer: > 100 µM (inactive)

Question: What about the GI50 [9] of the same compound?
Answer: > 100 µM (inactive)

Question: And the GI50 [10]?
Answer: > 100 µM (inactive)

Question: And the GI50 [11]?
Answer: > 100 µM

Question: What about the GI50 [16] of the same compound?
Answer: > 100 µM (inactive)

Question: What about the GI50 [12] of the same compound?
Answer: > 100 µM (inactive)

Question: And the GI50 [13]?
Answer: > 100 µM (inactive)

Question: And the GI50 [17]?
Answer: > 100 µM (inactive)

Question: With `COc1cc2c(c3oc4c(O)cccc4c(=O)c13)CC(C(C)(O)CCl)O2` (configuration not stated) as the compound, how does the GI50 [1] read?
Answer: 0.0242 µM (active)

Question: And the GI50 [2]?
Answer: 4.85 µM (inactive)

Question: What about the GI50 [3] of the same compound?
Answer: 0.0277 µM (active)

Question: What about the GI50 [18] of the same compound?
Answer: 1.22 µM (inactive)

Question: What about the GI50 [4] of the same compound?
Answer: 0.0661 µM (active)

Question: What about the GI50 [5] of the same compound?
Answer: 1.29 µM (inactive)

Question: And the GI50 [6]?
Answer: 12.1 µM (inactive)

Question: What about the GI50 [8] of the same compound?
Answer: 1.45 µM (inactive)

Question: What about the GI50 [9] of the same compound?
Answer: 2.06 µM (inactive)

Question: What about the GI50 [19] of the same compound?
Answer: 0.51 µM (active)

Question: What about the GI50 [20] of the same compound?
Answer: 1.55 µM (inactive)

Question: And the GI50 [10]?
Answer: 5.52 µM (inactive)

Question: And the GI50 [15]?
Answer: 0.373 µM (active)

Question: And the GI50 [11]?
Answer: 1.04 µM

Question: What about the GI50 [16] of the same compound?
Answer: 1.73 µM (inactive)

Question: And the GI50 [12]?
Answer: 0.968 µM (active)

Question: And the GI50 [13]?
Answer: < 0.01 µM (active)

Question: What about the GI50 [14] of the same compound?
Answer: 0.728 µM (active)

Question: And the GI50 [17]?
Answer: < 0.01 µM (active)

Question: What does the source list for `COc1ccc(C2SCC(=O)N2c2ccc(-c3ccc(-n4c(-c5ccccc5)nc5ccccc5c4=O)cc3)cc2)cc1` (configuration not stated)?
Answer: GI50 [1]: 30.4 µM (inactive); GI50 [2]: > 100 µM (inactive); GI50 [3]: 28.6 µM (inactive); GI50 [18]: 34 µM (inactive); GI50 [4]: 21.6 µM (inactive); GI50 [5]: 21.1 µM (inactive); GI50 [6]: 45.2 µM (inactive); GI50 [8]: 42.4 µM (inactive); GI50 [9]: 48.2 µM (inactive); GI50 [19]: 65.9 µM (inactive); GI50 [20]: 54.6 µM (inactive); GI50 [10]: > 100 µM (inactive); GI50 [15]: 39 µM (inactive); GI50 [11]: 44.5 µM; GI50 [16]: 30.3 µM (inactive); GI50 [12]: > 100 µM (inactive); GI50 [13]: > 100 µM (inactive); GI50 [14]: 33 µM (inactive); GI50 [17]: 31.8 µM (inactive)
